In assay [1] the test system is Escherichia coli. Description: Synergistic antibacterial activity against wild type Escherichia coli BW25113 assessed as levofloxacin MIC at 0.5 microg/ml incubated for 18 hrs in presence of colistin by broth dilution assay. The conditions noted are these: dose 0.5 µg/ml. Type of assay: functional.
For assay [2], the system named is Escherichia coli. Description: Synergistic antibacterial activity against wild type Escherichia coli BW25113 assessed as minocycline MIC at 2 microg/ml incubated for 18 hrs in presence of colistin by broth dilution assay. Type of assay: functional. Particulars: dose 2 µg/ml. (In general: Dilution methods test growth across graded concentrations, often in twofold steps.)

For assay [3], the target named is T1, Multidrug efflux pump subunit AcrB (Escherichia coli (strain K12)) (UniProt P31224).
T1 sequence (whole entry): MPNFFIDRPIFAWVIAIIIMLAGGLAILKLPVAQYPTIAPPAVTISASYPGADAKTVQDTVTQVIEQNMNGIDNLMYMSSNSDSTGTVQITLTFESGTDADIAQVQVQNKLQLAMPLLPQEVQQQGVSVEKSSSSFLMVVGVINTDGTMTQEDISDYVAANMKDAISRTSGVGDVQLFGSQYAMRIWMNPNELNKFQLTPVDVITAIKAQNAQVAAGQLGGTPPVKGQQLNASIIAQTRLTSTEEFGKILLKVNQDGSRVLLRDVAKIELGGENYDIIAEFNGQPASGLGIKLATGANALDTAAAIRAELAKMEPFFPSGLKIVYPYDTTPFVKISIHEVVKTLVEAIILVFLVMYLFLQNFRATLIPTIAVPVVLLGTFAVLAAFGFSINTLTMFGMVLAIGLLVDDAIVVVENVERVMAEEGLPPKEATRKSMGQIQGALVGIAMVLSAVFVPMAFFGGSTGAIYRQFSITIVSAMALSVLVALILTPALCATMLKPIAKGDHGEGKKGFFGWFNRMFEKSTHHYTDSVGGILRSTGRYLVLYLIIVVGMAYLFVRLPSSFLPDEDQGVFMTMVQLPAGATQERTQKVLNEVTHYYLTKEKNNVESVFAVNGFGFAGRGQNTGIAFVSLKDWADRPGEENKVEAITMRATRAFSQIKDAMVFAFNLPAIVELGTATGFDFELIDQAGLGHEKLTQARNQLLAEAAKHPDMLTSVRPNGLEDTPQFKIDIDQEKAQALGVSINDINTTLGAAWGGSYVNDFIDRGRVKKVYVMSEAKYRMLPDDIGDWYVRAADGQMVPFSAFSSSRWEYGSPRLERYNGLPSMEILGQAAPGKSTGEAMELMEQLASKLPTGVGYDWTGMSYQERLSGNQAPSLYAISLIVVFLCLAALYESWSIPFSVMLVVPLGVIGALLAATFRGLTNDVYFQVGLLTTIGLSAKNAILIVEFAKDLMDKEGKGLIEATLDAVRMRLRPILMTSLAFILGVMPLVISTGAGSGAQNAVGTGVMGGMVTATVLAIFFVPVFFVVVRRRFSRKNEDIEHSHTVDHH
The assay is described as follows: Inhibition of Escherichia coli BW25113 AcrB assessed as inhibition of nile red efflux at 100 uM incubated for 15 mins.

Broadly, the MIC is the smallest concentration in the dilution series that meets the test's criterion for growth inhibition. A word on the inhibition: it is the relative decrease from the control value, in per cent.

As for `CC1(C)CCc2c(C(=O)N3CCOCC3)cc3c(OCCN4CCN(c5ccccc5)CC4)cccc3c2O1`, the minimum inhibitory concentration (MIC) in assay [1] was determined as 0.032 µg/mL; in assay [2] it was 0.5 µg/mL.
For `CC1(C)CCc2c(C(=O)N3CCOCC3)cc3c(OCCSc4ccc([N+](=O)[O-])cc4)cccc3c2O1`, in assay [3], the inhibition amounted to 100%.
